In patent publication US9187487B2, “Azaindole derivatives as tyrosine kinase inhibitors” (PRINCIPIA BIOPHARMA, INC., priority 2011, dated 2015) one finds IC50 data, which are given here for four compounds.

The structures appear in SMILES notation. Some results are limits rather than exact numbers.

Sequence of recombinant JAK3 (catalytic domain, aa 781-1124) (P52333 781-1124): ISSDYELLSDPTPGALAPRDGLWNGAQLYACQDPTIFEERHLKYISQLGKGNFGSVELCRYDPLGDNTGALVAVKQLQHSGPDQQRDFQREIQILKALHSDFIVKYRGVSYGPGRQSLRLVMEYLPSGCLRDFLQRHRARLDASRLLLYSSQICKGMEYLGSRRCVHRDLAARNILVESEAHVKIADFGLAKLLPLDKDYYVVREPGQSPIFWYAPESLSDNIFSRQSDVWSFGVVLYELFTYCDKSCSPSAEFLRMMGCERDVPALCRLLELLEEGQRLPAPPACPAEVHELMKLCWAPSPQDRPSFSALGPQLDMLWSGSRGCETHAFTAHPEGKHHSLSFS

This assay addresses recombinant JAK3 (catalytic domain, aa 781-1124) (Homo sapiens (Human), UniProt P52333). The assay can be described thus: JAK3 Caliper Peptide Phosphorylation Assay. It counts as biochemical. Conditions: fluorescently labeled Srctide substrate 1 uM; ATP at 1×Km (2 uM); 2 hours at 25° C. The method, then:
JAK3 Caliper Peptide Phosphorylation Assay
Phosphorylation of the appropriate peptide substrate (fluorescently labeled Srctide) by recombinant JAK3 (catalytic domain, aa 781-1124) was measured in the presence and absence of different concentrations of test compounds. Test compound, enzyme, fluorescently labeled substrate, and cofactors (ATP and Mg^2+) were combined in a well of a microtiter plate and incubated for 2 hours at 25° C. The composition of the reaction buffer was 100 mM HEPES pH 7.5, 5 mM MgCl2, 0.01% Triton-X 100, 0.1% Bovine Serum Albumin, and 1% DMSO. Enzyme concentration in the final reaction mixture was 0.5 nM while peptide substrate was at 1 uM. ATP was used at 1×Km concentration corresponding to 2 uM. Serial dilutions (3-fold steps) of compounds were prepared in DMSO. At the end of the incubation, the reaction was stopped by the addition of 20 mM EDTA. Substrate and product (i.e. phosphorylated substrate) were separated electrophoretically and both were quantified by fluorescence intensity using the microfluidics-based LabChip 3000 Drug Discovery System from Caliper Life Sciences. Conversion for each well was calculated and plotted as function of test compound concentration. IC50 value was determined by fitting the data to a 4-parameter logistic model by non-linear regression (XLfit model 205). In every assay, Staurosporine was tested in the same manner as reference compound. Selectivity for JAK3 was determined using commercially available kinase cross-screening services (DiscoveRx, San Diego, Calif.).
For `CC(C)(C)C(=O)c1c[nH]c2ncc(Nc3ccc(C=C(C#N)S(C)(=O)=O)cc3)nc12` [compound 81, 2-(methylsulfonyl)-3-(4-((7-pivaloyl-5H-pyrrolo[2,3-b]pyrazin-2-yl)amino)phenyl)-acrylonitrile], the IC50 stood at 0.6 nM.

`CN(C)C(=O)C(C#N)=Cc1cccc(Oc2ncnc3[nH]ccc23)c1` [compound 11, 3-(3-((7H-pyrrolo[2,3-d]pyrimidin-4-yl)oxy)phenyl)-2-cyano-N,N-dimethylacrylamide]: the IC50 is more than 1000 nM.

`COc1c(C=C(C#N)C(=O)N(C)C)cccc1Nc1ncnc2[nH]ccc12` [compound 15, 3-(3-((7H-pyrrolo[2,3-d]pyrimidin-4-yl)amino)-2-methoxyphenyl)-2-cyano-N,N-dimethylacrylamide]: the IC50 is 2200 nM.

Take `CC(C)(C)C(=O)c1c[nH]c2ncc(Nc3ccc(C=C(C#N)C(N)=O)cc3)nc12` [compound 60, 2-cyano-3-(4-((7-pivaloyl-5H-pyrrolo[2,3-b]-pyrazin-2-yl)amino)phenyl)acrylamide]: the IC50 was 0.4 nM.
